Reference: patent US12209102B2, “Heterocyclic compounds and uses thereof” (Kumquat Biosciences Inc., priority 2022, dated 2025)

Columns and labels:
K-Ras G12S = biological target: T1, K-Ras G12S (Homo sapiens, UniProt P01116, G12S); assay: HTRF resonance energy transfer assay, K-Ras G12S / SOS1 interaction; format: biochemical; conditions: HTRF assay of Example 5; read-out: IC50 against K-Ras G12S
T1 construct: made in house; host or cells: E. coli BL21 (DE3)
Outline: (§1)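 Compounds, tested in duplicate at 10 μM down to 0.01 μM, were read after about 10 min or more by HTRF as the 665/620 nm emission ratio (337 nm excitation) to derive IC50. This ratio reports FRET between an anti-GST-Eu donor on GST-K-Ras (wild-type or mutant) and an anti-6His-XL665 acceptor on His-hSOS1. Buffer: ~5 mM HEPES pH 7.4, 150 mM NaCl, 1 mM DTT, 0.05% BSA, 0.0025% Igepal.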

K-Ras WT = biological target: T2, K-Ras WT (Homo sapiens, UniProt P01116); assay: HTRF resonance energy transfer assay, K-Ras WT / SOS1 interaction; format: biochemical; conditions: HTRF assay of Example 5; read-out: IC50 against K-Ras WT
T2 construct: made in house; host or cells: E. coli BL21 (DE3)
T2 sequence (P01116 1-188 isoform P01116-2): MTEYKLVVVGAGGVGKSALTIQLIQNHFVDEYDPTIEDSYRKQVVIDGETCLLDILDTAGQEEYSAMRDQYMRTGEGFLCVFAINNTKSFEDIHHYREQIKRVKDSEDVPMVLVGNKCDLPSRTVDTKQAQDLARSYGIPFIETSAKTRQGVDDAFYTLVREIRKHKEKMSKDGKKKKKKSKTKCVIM
Outline: as §1

A549 cells = assay: Ras cellular assay, growth of cells with K-Ras G12S mutation (CellTiter-Glo); format: cell-based; conditions: Homo sapiens, cell growth, Example 9, G12S mutation, read-out: IC50 against A549 cells
Outline: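 Growth inhibition IC50 values come from four-parameter fits of CellTiter-Glo luminescence, read about 6 days after compound addition. G12S-mutant A549 cells (e.g. 800/well, RPMI-1640 + 10% heat-inactivated FBS) were plated in tissue-culture-treated or ultra-low-attachment 384-well format. Dosing began the following day with serial dilutions, e.g. 10 points, 3-fold.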

K-Ras G12D = biological target: T3, K-Ras G12D (Homo sapiens, UniProt P01116, G12D); assay: HTRF resonance energy transfer assay, K-Ras G12D / SOS1 interaction; format: biochemical; conditions: HTRF assay of Example 5; read-out: IC50 against K-Ras G12D
T3 construct: made in house; host or cells: E. coli BL21 (DE3)
T3 sequence (P01116 1-188 isoform P01116-2 G12D): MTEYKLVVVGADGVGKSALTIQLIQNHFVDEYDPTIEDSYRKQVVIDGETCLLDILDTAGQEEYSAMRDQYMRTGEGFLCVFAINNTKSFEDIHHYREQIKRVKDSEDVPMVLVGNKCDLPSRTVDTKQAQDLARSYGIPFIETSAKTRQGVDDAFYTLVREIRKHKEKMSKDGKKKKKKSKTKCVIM
Outline: as §1

K-Ras G12V = biological target: T4, K-Ras G12V (Homo sapiens, UniProt P01116, G12V); assay: HTRF resonance energy transfer assay, K-Ras G12V / SOS1 interaction; format: biochemical; conditions: HTRF assay of Example 5; read-out: IC50 against K-Ras G12V
T4 construct: made in house; host or cells: E. coli BL21 (DE3)
T4 sequence (P01116 1-188 isoform P01116-2 G12V): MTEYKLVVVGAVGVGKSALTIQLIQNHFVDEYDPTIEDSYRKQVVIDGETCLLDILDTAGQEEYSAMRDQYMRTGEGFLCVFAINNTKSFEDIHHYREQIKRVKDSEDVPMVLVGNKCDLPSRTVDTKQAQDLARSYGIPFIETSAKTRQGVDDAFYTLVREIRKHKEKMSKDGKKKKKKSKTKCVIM
Outline: as §1

GP2D cells = assay: Ras cellular assay, growth of cells with K-Ras G12D mutation (CellTiter-Glo); format: cell-based; conditions: cell growth, Example 9, G12D mutation, read-out: IC50 against GP2D cells
SW620 cells = assay: Ras cellular assay, growth of cells with K-Ras G12V mutation (CellTiter-Glo); format: cell-based; conditions: Homo sapiens, SW-620; cell growth, Example 9, G12V mutation; read-out: IC50 against SW620 cells
Outline: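 IC50 values came from a four-parameter fit of CellTiter-Glo viability, read roughly 6 days after dosing with e.g. a 10-point threefold dilution series. G12V-mutant SW620 cells (e.g. 800 per well) had been plated the previous day in RPMI-1640/10% heat-inactivated FBS, on tissue culture-treated or ultra-low attachment plates.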

T1 sequence (P01116 1-188 isoform P01116-2 G12S): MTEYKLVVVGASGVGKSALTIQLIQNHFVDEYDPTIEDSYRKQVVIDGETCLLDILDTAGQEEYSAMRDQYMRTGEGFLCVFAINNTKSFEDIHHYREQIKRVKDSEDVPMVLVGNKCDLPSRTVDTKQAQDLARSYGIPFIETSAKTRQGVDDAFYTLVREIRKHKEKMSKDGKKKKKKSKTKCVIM

| Compound | IC50 (K-Ras G12S) [nM] | IC50 (K-Ras WT) [nM] | IC50 (A549 cells) [nM] | IC50 (K-Ras G12D) [nM] | IC50 (K-Ras G12V) [nM] | IC50 (SW620 cells) [nM] | IC50 (GP2D cells) [nM] |
| --- | --- | --- | --- | --- | --- | --- | --- |
| CC(C1CC1C#N)N1CCOc2c(Cl)c(-c3ccc(F)c4sc(N)c(C#N)c34)c(F)c3nc(OC[C@@]45CCCN4C[C@H](F)C5)nc1c23 (stereo partly drawn) [Compound 923, 2-amino-4-(8-chloro-4-(1-(2-cyanocyclopropyl)ethyl)-10-fluoro-2-(((2R,7aS)-2-fluorotetrahydro-1H-pyrrolizin-7a(5H)-yl)methoxy)-5,6-dihydro-4H-[1,4]oxazepino[5,6,7-de]quinazolin-9-yl)-7-fluorobenzo[b]thiophene-3-carbonitrile] | < 100 | < 100 | < 5000 | < 100 | < 100 | < 5000 | < 500 |
| CN(C)CCCN1CCOc2c(Cl)c(-c3ccc(F)c4sc(N)c(C#N)c34)c(F)c3nc(OC[C@@]45CCCN4C[C@H](F)C5)nc1c23 [Compound 1020, 2-amino-4-(8-chloro-4-(3-(dimethylamino)propyl)-10-fluoro-2-(((2R,7aS)-2-fluorotetrahydro-1H-pyrrolizin-7a(5H)-yl)methoxy)-5,6-dihydro-4H-[1,4]oxazepino[5,6,7-de]quinazolin-9-yl)-7-fluorobenzo[b]thiophene-3-carbonitrile] | < 100 | < 100 | < 5000 | < 100 | < 100 | < 5000 | < 500 |
| N#Cc1c(N)sc2c(F)ccc(-c3c(Cl)c4c5c(nc(OC[C@@]67CCCN6C[C@H](F)C7)nc5c3F)N(C3CCN(C(=O)[C@@H]5CCOC5)C3)CCO4)c12 (stereo partly drawn) [Compound 960, 2-amino-4-(8-chloro-10-fluoro-2-(((2R,7aS)-2-fluorotetrahydro-1H-pyrrolizin-7a(5H)-yl)methoxy)-4-(1-((R)-tetrahydrofuran-3-carbonyl)pyrrolidin-3-yl)-5,6-dihydro-4H-[1,4]oxazepino[5,6,7-de]quinazolin-9-yl)-7-fluorobenzo[b]thiophene-3-carbonitrile] | < 100 | < 100 | < 5000 | < 100 | < 100 | < 5000 | < 500 |
| C=C[C@H]1COc2c(Cl)c(-c3ccc(F)c4sc(N)c(C#N)c34)c(F)c3nc(OC[C@@]45CCCN4C[C@H](F)C5)nc(c23)N1CC(F)F (single isomer, unassigned) [Compound 890] | < 100 | < 100 | < 5000 | < 100 | < 100 | < 5000 | < 500 |
| N#Cc1c(N)sc2c(F)ccc(-c3c(Cl)c4c5c(nc(OC[C@@]67CCCN6C[C@H](F)C7)nc5c3F)N(CC3CC(F)(F)C3)CCO4)c12 [Compound 951, 2-amino-4-(8-chloro-4-((3,3-difluorocyclobutyl)methyl)-10-fluoro-2-(((2R,7aS)-2-fluorotetrahydro-1H-pyrrolizin-7a(5H)-yl)methoxy)-5,6-dihydro-4H-[1,4]oxazepino[5,6,7-de]quinazolin-9-yl)-7-fluorobenzo[b]thiophene-3-carbonitrile] | < 100 | < 100 | < 5000 | < 100 | < 100 | < 5000 | < 500 |
| CN1CCC(N2CCOc3c(Cl)c(-c4ccc(F)c5sc(N)c(C#N)c45)c(F)c4nc(OC[C@@]56CCCN5C[C@H](F)C6)nc2c34)C1 (stereo partly drawn) [Compound 921, 2-amino-4-(8-chloro-10-fluoro-2-(((2R,7aS)-2-fluorotetrahydro-1H-pyrrolizin-7a(5H)-yl)methoxy)-4-(1-methylpyrrolidin-3-yl)-5,6-dihydro-4H-[1,4]oxazepino[5,6,7-de]quinazolin-9-yl)-7-fluorobenzo[b]thiophene-3-carbonitrile] | < 100 | < 100 | < 5000 | < 100 | < 100 | < 5000 | < 500 |

Now from value to compound, other results behind:

| IC50 (K-Ras G12S) [nM] | IC50 (K-Ras WT) [nM] | IC50 (A549 cells) [nM] | IC50 (K-Ras G12D) [nM] | IC50 (K-Ras G12V) [nM] | IC50 (SW620 cells) [nM] | Compound | IC50 (GP2D cells) [nM] |
| --- | --- | --- | --- | --- | --- | --- | --- |
| < 100 | < 100 | < 5000 | < 100 | < 100 | < 5000 | N#Cc1c(N)sc2c(F)ccc(-c3c(Cl)c4c5c(nc(OC[C@@]67CCCN6C[C@H](F)C7)nc5c3F)N([C@@H]3CCOC3)CCO4)c12 [Compound 617, 2-amino-4-(8-chloro-10-fluoro-2-(((2R,7aS)-2-fluorotetrahydro-1H-pyrrolizin-7a(5H)-yl)methoxy)-4-((R)-tetrahydrofuran-3-yl)-5,6-dihydro-4H-[1,4]oxazepino[5,6,7-de]quinazolin-9-yl)-7-fluorobenzo[b]thiophene-3-carbonitrile] | < 500 |
| < 100 | < 100 | < 5000 | < 100 | < 100 | < 5000 | CC1Oc2c(Cl)c(-c3ccc(F)c4sc(N)c(C#N)c34)c(F)c3nc(OC[C@@]45CCCN4C[C@H](F)C5)nc(c23)N(CC(F)F)C1C (stereo partly drawn) [Compound 944, 2-amino-4-(8-chloro-4-(2,2-difluoroethyl)-10-fluoro-2-(((2R,7aS)-2-fluorotetrahydro-1H-pyrrolizin-7a(5H)-yl)methoxy)-5,6-dimethyl-5,6-dihydro-4H-[1,4]oxazepino[5,6,7-de]quinazolin-9-yl)-7-fluorobenzo[b]thiophene-3-carbonitrile] | < 500 |
| < 100 | < 100 | < 5000 | < 100 | < 100 | < 5000 | C[C@H]1CN(CC(F)F)c2nc(OC[C@@]34CCCN3C[C@H](F)C4)nc3c(F)c(-c4ccc(F)c5sc(N)c(C#N)c45)c(Cl)c(c23)O1 [Compound 1021, 2-amino-4-((6S)-8-chloro-4-(2,2-difluoroethyl)-10-fluoro-2-(((2R,7aS)-2-fluorotetrahydro-1H-pyrrolizin-7a(5H)-yl)methoxy)-6-methyl-5,6-dihydro-4H-[1,4]oxazepino[5,6,7-de]quinazolin-9-yl)-7-fluorobenzo[b]thiophene-3-carbonitrile] | < 500 |
| < 100 | < 100 | < 5000 | < 100 | < 100 | < 5000 | N#Cc1c(N)sc2c(F)ccc(-c3c(Cl)c4c5c(nc(OC[C@@]67CCCN6C[C@H](F)C7)nc5c3F)N(C3CCNC3)CCO4)c12 (stereo partly drawn) [Compound 969, 2-amino-4-(8-chloro-10-fluoro-2-(((2R,7aS)-2-fluorotetrahydro-1H-pyrrolizin-7a(5H)-yl)methoxy)-4-(pyrrolidin-3-yl)-5,6-dihydro-4H-[1,4]oxazepino[5,6,7-de]quinazolin-9-yl)-7-fluorobenzo[b]thiophene-3-carbonitrile] | < 500 |
| < 100 | < 100 | < 5000 | < 100 | < 100 | < 5000 | C[C@H](O)[C@H]1COc2c(Cl)c(-c3ccc(F)c4sc(N)c(C#N)c34)c(F)c3nc(OC[C@@]45CCCN4C[C@H](F)C5)nc(c23)N1CCC(F)F [Compound 954, 2-amino-4-((5R)-8-chloro-4-(3,3-difluoropropyl)-10-fluoro-2-(((2R,7aS)-2-fluorotetrahydro-1H-pyrrolizin-7a(5H)-yl)methoxy)-5-((S)-1-hydroxyethyl)-5,6-dihydro-4H-[1,4]oxazepino[5,6,7-de]quinazolin-9-yl)-7-fluorobenzo[b]thiophene-3-carbonitrile] | < 500 |
| < 100 | < 100 | < 5000 | < 100 | < 100 | < 5000 | N#Cc1c(N)sc2c(F)ccc(-c3c(Cl)c4c5c(nc(OC[C@@]67CCCN6C[C@H](F)C7)nc5c3F)N(CCC(F)(F)F)CCO4)c12 [Compound 932, 2-amino-4-(8-chloro-10-fluoro-2-(((2R,7aS)-2-fluorotetrahydro-1H-pyrrolizin-7a(5H)-yl)methoxy)-4-(3,3,3-trifluoropropyl)-5,6-dihydro-4H-[1,4]oxazepino[5,6,7-de]quinazolin-9-yl)-7-fluorobenzo[b]thiophene-3-carbonitrile] | < 500 |
| < 100 | < 100 | < 5000 | < 100 | < 100 | < 5000 | N#CCCN1CCOc2c(Cl)c(-c3ccc(F)c4sc(N)c(C#N)c34)c(F)c3nc(OC[C@@]45CCCN4C[C@H](F)C5)nc1c23 [Compound 648, 2-amino-4-(8-chloro-4-(2-cyanoethyl)-10-fluoro-2-(((2R,7aS)-2-fluorotetrahydro-1H-pyrrolizin-7a(5H)-yl)methoxy)-5,6-dihydro-4H-[1,4]oxazepino[5,6,7-de]quinazolin-9-yl)-7-fluorobenzo[b]thiophene-3-carbonitrile] | < 500 |
